Laboratory results reported in patent US8598182B2, “Insecticidal pyrimidinyl aryl hyrdrazones” (Dow AgroSciences, LLC., priority 2007, dated 2013).

Legend:
[1] = system: Corn Earworm (Helicoverpa zea); assay: Insecticidal diet-surface test for corn earworm; type: in vivo; conditions: second-instar corn earworm, 50 ug/cm2 on diet surface, 5 days after treatment, dead insects of 8
Method: (§1) The compounds identified in Table 1 were prepared using the procedures illustrated in the foregoing examples, and the compounds were tested against beet armyworm and corn earworm as follows:
(§2) Insecticidal Test for Corn Earworm (Helicoverpa zea) and Beet Armyworm (Spodoptera exigua).
(§3) To prepare test solution, the test compound was formulated at 2000 ppm solution as 4 mg/2 mL of 9 acetone:1 tap water. 50 μL of the 2000 ppm (equivalent to 50 ug/cm^2 dose on diet surface area) test solution was pipetted upon the surface of 1 mL of lepidopteran diet (Southland Multi-Species Lepidopteran Diet) contained in each of eight wells per insect species (one well=1 replication). A second-instar corn earworm and beet armyworm was placed upon the treated diet in each well once the solvent had air-dried. Trays containing the treated diet and larvae were covered and then held in a growth chamber at 25° C., 50-55% RH, and 16 hr light:8 hr dark for 5 days. Observation were conducted 5 days after treatment and infestation. The number of dead insects of 8 per species per treatment was then determined and the results are given in Table 1 as percent control at a dose of […].
(§4) Keys to the table: Mass spectral data were obtained using liquid chromatography mass spectroscopy (LC-MS). The masses are detected using electrospray ionization (ESI) and reported as Mol Ion (M+H, M−H); AVG LAPHEG 50 refers to activity against beet army worm (Spodoptera exigua) as defined above; AVG HELIZE 50 refers to activity against corn ear worm (Helicoverpa zea) as described above.

[2] = system: Beet Armyworm (Spodoptera exigua); assay: Insecticidal diet-surface test for beet armyworm; type: in vivo; conditions: second-instar beet armyworm, 50 ug/cm2 on diet surface, 5 days after treatment, dead insects of 8
Method: as §1, §2, §3, §4

FC(F)C(F)(F)Oc1cccc(Nc2cc(Cl)nc(N/N=C/c3ccc(OC(F)(F)F)cc3)n2)c1 [Compound 47]
HELIZE 50 (ug/cm2), percent control [1]: 100% | LAPHEG 50 (ug/cm2), percent control [2]: 100%

Fc1ccc(/C=N/Nc2nc(Cl)cc(Nc3cccc(OC(F)(F)C(F)F)c3)n2)cc1C(F)(F)F [Compound 48]
HELIZE 50 (ug/cm2), percent control [1]: 88% | LAPHEG 50 (ug/cm2), percent control [2]: 25%

OC(c1cccc(Nc2cc(Cl)nc(N/N=C/c3ccc(OC(F)(F)F)cc3)n2)c1)C(F)(F)F (centres unmarked) [Compound 49]
HELIZE 50 (ug/cm2), percent control [1]: 50% | LAPHEG 50 (ug/cm2), percent control [2]: 88%

OC(c1cccc(Nc2cc(Cl)nc(N/N=C/c3ccc(OC(F)(F)C(F)F)cc3)n2)c1)C(F)(F)F (centres unmarked) [Compound 50]
HELIZE 50 (ug/cm2), percent control [1]: 0% | LAPHEG 50 (ug/cm2), percent control [2]: 63%

Fc1ccc(/C=N/Nc2nc(Cl)cc(Nc3cccc(Cl)c3)n2)cc1C(F)(F)F [Compound 51]
HELIZE 50 (ug/cm2), percent control [1]: 50% | LAPHEG 50 (ug/cm2), percent control [2]: 75%

Fc1ccc(/C=N/Nc2nc(Cl)cc(Nc3cccc(Br)c3)n2)cc1C(F)(F)F [Compound 52]
HELIZE 50 (ug/cm2), percent control [1]: 75% | LAPHEG 50 (ug/cm2), percent control [2]: 38%

CC(C)(C)C(=O)OC(c1cccc(Nc2cc(Cl)nc(N/N=C/c3ccc(OC(F)(F)F)cc3)n2)c1)C(F)(F)F (centres unmarked) [Compound 53]
HELIZE 50 (ug/cm2), percent control [1]: 0% | LAPHEG 50 (ug/cm2), percent control [2]: 38%

FC(F)(F)Oc1ccc(/C=N/Nc2nc(Nc3cccc(C(F)(F)F)c3)cc(C(F)(F)F)n2)cc1 [Compound 54]
HELIZE 50 (ug/cm2), percent control [1]: 100% | LAPHEG 50 (ug/cm2), percent control [2]: 100%

FC(F)(F)c1cccc(Nc2cc(C(F)(F)F)nc(N/N=C/c3cccc(Br)c3)n2)c1 [Compound 55]
HELIZE 50 (ug/cm2), percent control [1]: 88% | LAPHEG 50 (ug/cm2), percent control [2]: 75%

Fc1ccc(Nc2cc(C(F)(F)F)nc(N/N=C/c3ccc(OC(F)(F)F)cc3)n2)cc1C(F)(F)F [Compound 56]
HELIZE 50 (ug/cm2), percent control [1]: 100% | LAPHEG 50 (ug/cm2), percent control [2]: 100%

Fc1ccc(Nc2cc(C(F)(F)F)nc(N/N=C/c3cccc(Br)c3)n2)cc1C(F)(F)F [Compound 57]
HELIZE 50 (ug/cm2), percent control [1]: 100% | LAPHEG 50 (ug/cm2), percent control [2]: 100%

CN(/N=C/c1ccc(OC(F)(F)C(F)F)cc1)c1nc(Cl)cc(Nc2ccc(F)c(C(F)(F)F)c2)n1 [Compound 58]
HELIZE 50 (ug/cm2), percent control [1]: 100% | LAPHEG 50 (ug/cm2), percent control [2]: 100%

Fc1ccc(Nc2cc(Cl)nc(N/N=C/c3ccc(OC(F)(F)C(F)F)cc3)n2)cc1C(F)(F)F [Compound 59]
HELIZE 50 (ug/cm2), percent control [1]: 100% | LAPHEG 50 (ug/cm2), percent control [2]: 100%

FC(F)(F)Oc1ccc(/C=N/Nc2nc(Nc3ccc(OC(F)(F)F)cc3)cc(C(F)(F)F)n2)cc1 [Compound 60]
HELIZE 50 (ug/cm2), percent control [1]: 100% | LAPHEG 50 (ug/cm2), percent control [2]: 100%

CN(/N=C/c1ccc(OC(F)(F)F)cc1)c1nc(Nc2ccc(OC(F)(F)F)cc2)cc(C(F)(F)F)n1 [Compound 61]
HELIZE 50 (ug/cm2), percent control [1]: 88% | LAPHEG 50 (ug/cm2), percent control [2]: 88%

Fc1ccc(Nc2cc(N3CCOCC3)nc(N/N=C/c3ccc(OC(F)(F)F)cc3)n2)cc1C(F)(F)F [Compound 62]
HELIZE 50 (ug/cm2), percent control [1]: 100% | LAPHEG 50 (ug/cm2), percent control [2]: 100%

Fc1ccc(Nc2cc(OCC(F)(F)F)nc(N/N=C/c3ccc(OC(F)(F)F)cc3)n2)cc1C(F)(F)F [Compound 63]
HELIZE 50 (ug/cm2), percent control [1]: 100% | LAPHEG 50 (ug/cm2), percent control [2]: 100%

COCCNc1cc(Nc2ccc(F)c(C(F)(F)F)c2)nc(N/N=C/c2ccc(OC(F)(F)F)cc2)n1 [Compound 64]
HELIZE 50 (ug/cm2), percent control [1]: 100% | LAPHEG 50 (ug/cm2), percent control [2]: 100%

CCNCCNc1cc(Nc2ccc(F)c(C(F)(F)F)c2)nc(N/N=C/c2ccc(OC(F)(F)F)cc2)n1 [Compound 65]
HELIZE 50 (ug/cm2), percent control [1]: 100% | LAPHEG 50 (ug/cm2), percent control [2]: 100%

Fc1ccc(Nc2cc(Cl)nc(N/N=C/c3ccc(Br)nc3)n2)cc1C(F)(F)F [Compound 66]
HELIZE 50 (ug/cm2), percent control [1]: 75% | LAPHEG 50 (ug/cm2), percent control [2]: 100%

CCOc1ccc(/C=N/Nc2nc(Cl)cc(Nc3ccc(F)c(C(F)(F)F)c3)n2)cn1 [Compound 67]
HELIZE 50 (ug/cm2), percent control [1]: 100% | LAPHEG 50 (ug/cm2), percent control [2]: 100%

Fc1ccc(Nc2cc(Cl)nc(N/N=C/c3ccc(C(F)(F)F)nc3)n2)cc1C(F)(F)F [Compound 68]
HELIZE 50 (ug/cm2), percent control [1]: 100% | LAPHEG 50 (ug/cm2), percent control [2]: 100%

FC(F)C(F)(F)Oc1cccc(Nc2cc(Cl)nc(N/N=C/c3ccc(C(F)(F)F)nc3)n2)c1 [Compound 69]
HELIZE 50 (ug/cm2), percent control [1]: 0% | LAPHEG 50 (ug/cm2), percent control [2]: 75%

Fc1ccc(Nc2cc(Cl)nc(N/N=C/c3ccc(OCC(F)(F)F)nc3)n2)cc1C(F)(F)F [Compound 70]
HELIZE 50 (ug/cm2), percent control [1]: 100% | LAPHEG 50 (ug/cm2), percent control [2]: 100%

FC(F)(F)COc1ccc(/C=N/Nc2nc(Cl)cc(Nc3cccc(Cl)c3)n2)cn1 [Compound 71]
HELIZE 50 (ug/cm2), percent control [1]: 100% | LAPHEG 50 (ug/cm2), percent control [2]: 100%

Fc1ccc(Nc2cc(C(F)(F)F)nc(N/N=C/c3ccc(C(F)(F)F)nc3)n2)cc1C(F)(F)F [Compound 72]
HELIZE 50 (ug/cm2), percent control [1]: 100% | LAPHEG 50 (ug/cm2), percent control [2]: 100%

FC(F)(F)Oc1ccc(/C=N/Nc2ccnc(Nc3ccc(OC(F)(F)F)cc3)n2)cc1 [Compound 73]
HELIZE 50 (ug/cm2), percent control [1]: 100% | LAPHEG 50 (ug/cm2), percent control [2]: 100%

FC(F)(F)Oc1ccc(Nc2nccc(N/N=C/c3ccc(C(F)(F)F)cc3)n2)cc1 [Compound 74]
HELIZE 50 (ug/cm2), percent control [1]: 100% | LAPHEG 50 (ug/cm2), percent control [2]: 100%

Fc1ccc(Nc2nc(Cl)cc(N/N=C/c3ccc(OC(F)(F)F)cc3)n2)cc1C(F)(F)F [Compound 75]
HELIZE 50 (ug/cm2), percent control [1]: 100% | LAPHEG 50 (ug/cm2), percent control [2]: 100%

Fc1ccc(Nc2nc(Cl)cc(N/N=C/c3ccc(OC(F)(F)C(F)F)cc3)n2)cc1C(F)(F)F [Compound 76]
HELIZE 50 (ug/cm2), percent control [1]: 25% | LAPHEG 50 (ug/cm2), percent control [2]: 38%

Fc1ccc(Nc2nccc(N/N=C/c3ccc(OC(F)(F)C(F)F)cc3)n2)cc1C(F)(F)F [Compound 77]
HELIZE 50 (ug/cm2), percent control [1]: 100% | LAPHEG 50 (ug/cm2), percent control [2]: 100%

Fc1ccc(Nc2ncc(F)c(NN=Cc3ccc(OC(F)(F)F)cc3)n2)cc1C(F)(F)F [Compound 78]
HELIZE 50 (ug/cm2), percent control [1]: 100% | LAPHEG 50 (ug/cm2), percent control [2]: 100%

Fc1cnc(Nc2cccc(C(F)(F)F)c2)nc1NN=Cc1ccc(OC(F)(F)F)cc1 [Compound 79]
HELIZE 50 (ug/cm2), percent control [1]: 100% | LAPHEG 50 (ug/cm2), percent control [2]: 100%

Fc1ccc(Nc2ccnc(N/N=C/c3ccc(OC(F)(F)F)cc3)n2)cc1C(F)(F)F [Compound 80]
HELIZE 50 (ug/cm2), percent control [1]: 100% | LAPHEG 50 (ug/cm2), percent control [2]: 100%

Fc1ccc(Nc2cc(N/N=C/c3ccc(OC(F)(F)C(F)F)cc3)nc(NCc3ccc(Cl)nc3)n2)cc1C(F)(F)F [Compound 81]
HELIZE 50 (ug/cm2), percent control [1]: 100% | LAPHEG 50 (ug/cm2), percent control [2]: 0%

Fc1ccc(Nc2nc(Cl)nc(N/N=C/c3ccc(OC(F)(F)F)nc3)c2Cl)cc1C(F)(F)F [Compound 82]
HELIZE 50 (ug/cm2), percent control [1]: 100% | LAPHEG 50 (ug/cm2), percent control [2]: 100%

FC(F)(F)Oc1ccc(/C=N/Nc2cc(Nc3cc(Cl)cc(C(F)(F)F)c3)nc(Cl)n2)cc1 [Compound 83]
HELIZE 50 (ug/cm2), percent control [1]: 100% | LAPHEG 50 (ug/cm2), percent control [2]: 100%

FC(F)C(F)(F)Oc1ccc(/C=N/Nc2cc(Nc3cc(Cl)cc(C(F)(F)F)c3)nc(Cl)n2)cc1 [Compound 84]
HELIZE 50 (ug/cm2), percent control [1]: 100% | LAPHEG 50 (ug/cm2), percent control [2]: 100%

Fc1ccc(Nc2cc(NN=Cc3ccc(OC(F)(F)F)cc3)ncn2)cc1C(F)(F)F [Compound 85]
HELIZE 50 (ug/cm2), percent control [1]: 100% | LAPHEG 50 (ug/cm2), percent control [2]: 100%

Fc1ccc(Nc2cc(N/N=C/c3ccc(C(F)(F)F)nc3)ncn2)cc1C(F)(F)F [Compound 86]
HELIZE 50 (ug/cm2), percent control [1]: 100% | LAPHEG 50 (ug/cm2), percent control [2]: 100%
